Measurements published in patent publication EP0326331B1, “Substituted quinolines and cinnolines” (Dow AgroSciences LLC, priority 1988, dated 1989).

How the values were obtained:
Format in all cases: in vivo
[1] = system: Puccinia recondita tritici (leaf rust); test: Test 1 greenhouse foliar spray screen, leaf rust on wheat; conditions: disease control rating, foliar spray on wheat, 400 ppm (+++ at 100 ppm)
[2] = system: Twospotted spider mites (Tetranychus urticae Koch); test: Mite/insect screen, SM; conditions: for mortality at 200 ppm / mortality at 400 ppm: Tetranychus urticae, percent mortality, SAW, read-out: SM RESULTS %; for mortality at 200 ppm: SM & MA RATE 200 PPM; for mortality at 400 ppm: SM & MA RATE 400 PPM
Summary of the method: (§1)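 Foliar spray to runoff (10 psi), 1 h drying; aqueous dilutions from acetone/alcohol emulsifier stock. Mortality (%) after standard exposure.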

[3] = system: Venturia inaequalis (apple scab); test: Test 1 greenhouse foliar spray screen, apple scab on apple seedling; conditions: disease control rating, foliar spray on apple seedling, 400 ppm (+++ at 100 ppm)
[4] = system: Botrytis cinerea (gray mold); test: Test 1 greenhouse foliar spray screen, gray mold on grape berries; conditions: disease control rating, spray on grape berries, 400 ppm (+++ at 100 ppm)
[5] = system: Cercospora beticola (leaf spot); test: Test 1 greenhouse foliar spray screen, leaf spot on sugar beet; conditions: disease control rating, foliar spray on sugar beet, 400 ppm (+++ at 100 ppm)
[6] = system: Erysiphe graminis tritici (powdery mildew); test: Test 1 greenhouse foliar spray screen, powdery mildew on wheat; conditions: disease control rating, foliar spray on wheat, 400 ppm (+++ at 100 ppm)
[7] = system: Pyricularia oryzae (rice blast); test: whole plant or invertebrate; conditions: disease control rating, foliar spray on rice, 400 ppm (+++ at 100 ppm)
[8] = system: melon aphids (Aphis gossypii Glover); test: Mite/insect screen, MA; conditions: Aphis gossypii, percent mortality, SAW, read-out: MA RESULTS %; for mortality at 200 ppm: SM & MA RATE 200 PPM; for mortality at 400 ppm: SM & MA RATE 400 PPM
Summary of the method: as §1

[9] = system: Pseudoperonospora cubensis (downy mildew); test: Test 1 greenhouse foliar spray screen, downy mildew on squash; conditions: disease control rating, foliar spray on squash, 400 ppm (+++ at 100 ppm)
[10] = system: corn rootworm; test: Mite/insect screen, CRW; conditions: percent mortality, read-out: CRW RESULTS %; for mortality at 12 ppm: CRW RATE 12.00 PPM; for mortality at 24 ppm: CRW RATE 24.00 PPM
Summary of the method: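 Following dissolution in equal parts acetone and alcohol with 23 g/L and 13 g/L emulsifier blends and dilution with water, test solutions were scored for percent mortality at the end of standard exposures.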

[11] = system: southern armyworm (Spodopetra eridania Cramer); test: Mite/insect screen, SAW; conditions: Spodoptera eridania, percent mortality, SAW, read-out: SAW RESULTS %; for mortality at 200 ppm: SM & MA RATE 200 PPM; for mortality at 400 ppm: SM & MA RATE 400 PPM
Summary of the method: as §1

[12] = system: Septoria tritici (leaf blotch); test: Test 1 greenhouse foliar spray screen, leaf blotch on wheat; conditions: disease control rating, foliar spray on wheat, 400 ppm (+++ at 100 ppm)

## FC(F)(F)c1cccc2c(NCCc3ccc(Cl)cc3Cl)ccnc12 [Example 52, N-[2-(2,4-dichlorophenyl)ethyl]-8-(trifluoromethyl)-4-quinolinamine]
[1]
  LEAF RUST: + (20-89% control at 400 ppm)
[2]
  mortality at 200 ppm: 0%
  mortality at 400 ppm: 0%
[3]
  APPL SCAB: - (0-19% control at 400 ppm)
[4]
  GRAY MOLD: - (0-19% control at 400 ppm)
[5]
  LEAF SPOT: + (20-89% control at 400 ppm)
[6]
  POWD MDEW: - (0-19% control at 400 ppm)
[7]
  RICE BLAST: + (20-89% control at 400 ppm)
[8]
  mortality at 200 ppm: 0%
  mortality at 400 ppm: 0%
[9]
  DOWN MDEW: +++ (90-100% control at 100 ppm)
[10]
  mortality at 12 ppm: 0%
  mortality at 24 ppm: 0%
[11]
  mortality at 200 ppm: 0%
  mortality at 400 ppm: 0%
[12]
  LEAF BLOT: +++ (90-100% control at 100 ppm)

## Cc1ccc2nccc(NCCc3ccc(Cl)cc3Cl)c2c1 [Example 53, .N-[2-(2,4-dichlorophenyl)ethyl]-6-methyl-4-quinolinamine]
[1]
  LEAF RUST: + (20-89% control at 400 ppm)
[2]
  mortality at 200 ppm: 0%
  mortality at 400 ppm: 0%
[3]
  APPL SCAB: - (0-19% control at 400 ppm)
[4]
  GRAY MOLD: - (0-19% control at 400 ppm)
[5]
  LEAF SPOT: +++ (90-100% control at 100 ppm)
[6]
  POWD MDEW: +++ (90-100% control at 100 ppm)
[7]
  RICE BLAST: + (20-89% control at 400 ppm)
[8]
  mortality at 200 ppm: 0%
  mortality at 400 ppm: 0%
[9]
  DOWN MDEW: +++ (90-100% control at 100 ppm)
[10]
  mortality at 12 ppm: 0%
  mortality at 24 ppm: 0%
[11]
  mortality at 200 ppm: 0%
  mortality at 400 ppm: 0%
[12]
  LEAF BLOT: + (20-89% control at 400 ppm)

## COc1cc2c(NCCc3ccccc3)cc(C)nc2cc1Cl [Example 54, 7-chloro-6-methoxy-2-methyl-N-(2-phenylethyl)-4-quinolinamine]
[1]
  LEAF RUST: + (20-89% control at 400 ppm)
[2]
  mortality at 200 ppm: 0%
[3]
  APPL SCAB: - (0-19% control at 400 ppm)
[4]
  GRAY MOLD: - (0-19% control at 400 ppm)
[5]
  LEAF SPOT: +++ (90-100% control at 100 ppm)
[6]
  POWD MDEW: - (0-19% control at 400 ppm)
[7]
  RICE BLAST: ++ (90-100% control at 400 ppm)
[8]
  mortality at 200 ppm: 0%
[9]
  DOWN MDEW: +++ (90-100% control at 100 ppm)
[10]
  mortality at 12 ppm: 0%
[11]
  mortality at 200 ppm: 0%
[12]
  LEAF BLOT: + (20-89% control at 400 ppm)

## COc1ccccc1CCNc1ccnc2ccccc12 [Example 55, N-[2-(2-methoxyphenyl)ethyl]-4-quinolinamine]
[1]
  LEAF RUST: + (20-89% control at 400 ppm)
[2]
  mortality at 200 ppm: 0%
[3]
  APPL SCAB: - (0-19% control at 400 ppm)
[4]
  GRAY MOLD: - (0-19% control at 400 ppm)
[5]
  LEAF SPOT: +++ (90-100% control at 100 ppm)
[6]
  POWD MDEW: + (20-89% control at 400 ppm)
[7]
  RICE BLAST: ++ (90-100% control at 400 ppm)
[8]
  mortality at 200 ppm: 0%
[9]
  DOWN MDEW: ++ (90-100% control at 400 ppm)
[10]
  mortality at 12 ppm: 0%
[11]
  mortality at 200 ppm: 0%
[12]
  LEAF BLOT: - (0-19% control at 400 ppm)

## Fc1ccc2nccc(NCCc3ccc(Cl)cc3)c2c1 [Example 56, N-[2-(4-chlorophenyl)ethyl]-6-fluoro-4-quinolinamine]
[1]
  LEAF RUST: ++ (90-100% control at 400 ppm)
[2]
  mortality at 200 ppm: 0%
  mortality at 400 ppm: 0%
[2]; summary statement in the description
  activity as miticides: particularly excellent activity
[3]
  APPL SCAB: - (0-19% control at 400 ppm)
[4]
  GRAY MOLD: - (0-19% control at 400 ppm)
[5]
  LEAF SPOT: +++ (90-100% control at 100 ppm)
[6]
  POWD MDEW: - (0-19% control at 400 ppm)
[7]
  RICE BLAST: ++ (90-100% control at 400 ppm)
[8]
  mortality at 200 ppm: 0%
  mortality at 400 ppm: 0%
[9]
  DOWN MDEW: +++ (90-100% control at 100 ppm)
[10]
  mortality at 12 ppm: 0%
  mortality at 24 ppm: 0%
[11]
  mortality at 200 ppm: 100%
  mortality at 400 ppm: 80%
[12]
  LEAF BLOT: + (20-89% control at 400 ppm)

## Cc1cc(NCCc2ccc(Cl)cc2)c2cc(F)ccc2n1 [Example 57, N-[2-(4-chlorophenyl)ethyl]-2-methyl-6-fluoro-4-quinolinamine]
[1]
  LEAF RUST: + (20-89% control at 400 ppm)
[2]
  mortality at 200 ppm: 0%
  mortality at 400 ppm: 0%
[3]
  APPL SCAB: - (0-19% control at 400 ppm)
[4]
  GRAY MOLD: - (0-19% control at 400 ppm)
[5]
  LEAF SPOT: +++ (90-100% control at 100 ppm)
[6]
  POWD MDEW: - (0-19% control at 400 ppm)
[7]
  RICE BLAST: ++ (90-100% control at 400 ppm)
[8]
  mortality at 200 ppm: 0%
  mortality at 400 ppm: 0%
[9]
  DOWN MDEW: ++ (90-100% control at 400 ppm)
[10]
  mortality at 12 ppm: 0%
  mortality at 24 ppm: 0%
[11]
  mortality at 200 ppm: 40%
  mortality at 400 ppm: 50%
[12]
  LEAF BLOT: - (0-19% control at 400 ppm)

## Fc1cccc2c(NCC(c3ccccc3)C3CCCCC3)ccnc12 (centres unmarked) [Example 62, 8-fluoro-N-(2-cyclohexyl-2-phenylethyl)-4-quinolinamine]
[1]
  LEAF RUST: ++ (90-100% control at 400 ppm)
[2]
  mortality at 400 ppm: 0%
[3]
  APPL SCAB: - (0-19% control at 400 ppm)
[4]
  GRAY MOLD: - (0-19% control at 400 ppm)
[5]
  LEAF SPOT: - (0-19% control at 400 ppm)
[6]
  POWD MDEW: - (0-19% control at 400 ppm)
[7]
  RICE BLAST: ++ (90-100% control at 400 ppm)
[8]
  mortality at 400 ppm: 0%
[9]
  DOWN MDEW: +++ (90-100% control at 100 ppm)
[10]
  mortality at 24 ppm: 0%
[11]
  mortality at 400 ppm: 0%
[12]
  LEAF BLOT: + (20-89% control at 400 ppm)

## Fc1cccc(F)c1CCNc1ccnc2c(F)cccc12 [Example 65, N-[2-(2,6-difluorophenyl)ethyl]-8-fluoro-4-quinolinamine]
[1]
  LEAF RUST: ++ (90-100% control at 400 ppm)
[2]
  mortality at 200 ppm: 0%
[3]
  APPL SCAB: - (0-19% control at 400 ppm)
[4]
  GRAY MOLD: - (0-19% control at 400 ppm)
[5]
  LEAF SPOT: - (0-19% control at 400 ppm)
[6]
  POWD MDEW: + (20-89% control at 400 ppm)
[7]
  RICE BLAST: + (20-89% control at 400 ppm)
[8]
  mortality at 200 ppm: 0%
[9]
  DOWN MDEW: +++ (90-100% control at 100 ppm)
[10]
  mortality at 12 ppm: 0%
[11]
  mortality at 200 ppm: 0%
[12]
  LEAF BLOT: + (20-89% control at 400 ppm)
